{"source": "patent US7442501B2", "about": "“SQV nucleic acids and polypeptides” (Massachusetts Institute of Technology, priority 2002, dated 2008)", "molecules": {"B1": {"name": "SQV-4 protein that contained a histidine for arginine substitution at amino acid position 353: bacterially expressed mutant SQV-4 corresponding to the sqv-4 mutant allele n2827 (protein, UniProt Q19905 1-481, looked up, variant R353H)", "UDP-glucose 6-dehydrogenase": "MTDQVFGKVSKVVCVGAGYVGGPTCAMIAHKCPHITVTVVDMNTAKIAEWNSDKLPIYEPGLDEIVFAARGRNLFFSSDIPKAIAEADLIFISVNTPTKMYGRGKGMAPDLKYVESVSRTIAQYAGGPKIVVEKSTVPVKAAESIGCILREAQKNNENLKFQVLSNPEFLAEGTAMKDLANPDRVLIGGESSPEGLQAVAELVRIYENWVPRNRIITTNTWSSELSKLVANAFLAQRISSINSISAVCEATGAEISEVAHAVGYDTRIGSKFLQASVGFGGSCFQKDVLSLVYLCESLNLPQVADYWQGVININNWQRRRFADKIIAELFNTVTDKKIAIFGFAFKKNTGDTHESSAIHVIKHLMEEHAKLSVYDPKVQKSQMLNDLASVTSAQDVERLITVESDPYAAARGAHAIVVLTEWDEFVELNYSQIHNDMQHPAAIFDGRLILDQKALREIGFRTFAIGTSPDQAYNLFGTAGY"}, "B2": {"name": "wild-type SQV-4 protein: recombinant SQV-4 protein expressed in E. coli, soluble lysate fraction (protein, UniProt Q19905 1-481, looked up)", "UDP-glucose 6-dehydrogenase": "B1 UDP-glucose 6-dehydrogenase with H353R"}}, "key": {"SQV-4 [1]": {"target": "T1, SQV-4 (Caenorhabditis elegans, UniProt Q19905, T2A)", "T1 construct": "were used for PCR-amplification of the sqv-4 ORF, and the resulting product was digested with NcoI and XhoI and cloned into pET21d; made in house; host or cells: E. coli BL21 pLysS, pET21d; soluble fraction used without purification", "T1 sequence (Q19905 whole entry T2A)": "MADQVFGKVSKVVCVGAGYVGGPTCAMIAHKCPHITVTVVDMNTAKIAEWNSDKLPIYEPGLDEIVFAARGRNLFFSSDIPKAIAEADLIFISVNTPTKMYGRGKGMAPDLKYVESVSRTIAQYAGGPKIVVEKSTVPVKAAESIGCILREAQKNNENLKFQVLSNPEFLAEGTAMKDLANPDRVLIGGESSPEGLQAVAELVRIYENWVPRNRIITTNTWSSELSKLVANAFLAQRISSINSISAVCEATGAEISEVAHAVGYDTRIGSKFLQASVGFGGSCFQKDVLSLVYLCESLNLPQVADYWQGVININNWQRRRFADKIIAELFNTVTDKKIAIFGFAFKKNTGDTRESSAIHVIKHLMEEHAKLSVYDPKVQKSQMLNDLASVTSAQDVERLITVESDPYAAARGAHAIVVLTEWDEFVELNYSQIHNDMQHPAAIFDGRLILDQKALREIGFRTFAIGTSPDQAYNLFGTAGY", "type": "biochemical, C. elegans", "details": "for NAD+ reduction: UDP-glucose replaced, 100 μM NAD+ and 250 μM nucleotide sugar", "source_text": "(§1) The sqv-4 coding sequences corresponding to the wild-type, n2827, and n2840 alleles were cloned into the pET21d E. coli expression vector and transformed into BL21 pLysS. The oligonucleotides 5′-[…]-3′ (SEQ ID NO:53) and 5′-[…]-3′ (SEQ ID NO:54) were used to generate R353H n2827 and T4101 n2840 mutations, respectively, by site-directed mutagenesis. The oligonucleotides 5′-[…]-3′ (SEQ ID NO:55) and 5′-[…]-3′ (SEQ ID NO:56) were used for PCR-amplification of the sqv-4 ORF, and the resulting product was digested with NcoI and XhoI and cloned into pET21d. All three proteins have a threonine to alanine mutation in the second amino acid because of the addition of an NcoI site at the 5′ end. SQV-4 expression was induced by incubation with 1 mM IPTG for three to four hours at 37° C. E. coli were pelleted and resuspended in 50 mM Tris-HCl pH 7.5, 1 mM DTT, 1 mM EDTA, 1 mM PMSF, 2 μg/ml pepstatin A, and aprotinin and lysed using a French pressure cell. The soluble fraction was separated from the insoluble inclusion bodies by centrifugation at 12,000 g for 20 minutes.\n(§2) All assays were performed at room temperature (20 to 22° C.) in 50 mM Tris-HCl, 2 mM dithiothrietol (DTT), pH 8.7. The initial velocity of the reaction was determined from time points during the first 60 seconds after addition of the SQV-4 extract."}, "[2]": {"target": "T2, Protein A-SQV-2 fusion protein (Caenorhabditis elegans, UniProt Q9N491)", "T2 construct": "protein A (modified, secreted); made in house; host or cells: COS7 cells, transient transfection; purified from culture supernatant on IgG-agarose", "T2 sequence (Q9N491 25-330)": "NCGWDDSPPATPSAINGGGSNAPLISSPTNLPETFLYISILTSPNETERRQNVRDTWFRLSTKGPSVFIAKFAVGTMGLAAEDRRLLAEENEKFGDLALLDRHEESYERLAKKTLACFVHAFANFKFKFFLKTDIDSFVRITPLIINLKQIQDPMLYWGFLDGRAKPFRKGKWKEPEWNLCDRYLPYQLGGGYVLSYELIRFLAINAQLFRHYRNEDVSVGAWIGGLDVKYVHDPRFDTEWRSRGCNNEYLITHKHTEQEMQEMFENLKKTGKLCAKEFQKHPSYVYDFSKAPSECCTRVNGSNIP", "test": "Galactosyltransferase II assay, acceptor substrate specificity", "type": "biochemical, C. elegans", "details": "for Enzyme Activity: acceptor 5 mM, donor UDP-[3H]galactose; for acceptor for glycosylation by SQV-2: UDP-[3H]galactose with various acceptor substrates", "protocol": "We assayed a recombinant Protein A-SQV-2 fusion protein expressed in COS7 cells for galactosyltransferase II activity.\nGalactosyltransferase activity was assayed in vitro using UDP-[^3H]galactose together with various acceptor substrates.\nA sqv-2 coding sequence encoding amino acids 25 to 330 of SQV-2, thus lacking the transmembrane domain at the amino terminus, was cloned into pDEST-CMV-protA vector as follows. The oligonucleotides 5′-[…]-3′ (SEQ ID NO:45) and 5′-[…]-3′ (SEQ ID NO:46) were used as the primers for PCR-amplification, and the resulting product was digested with EcoRI and XhoI and cloned into pENTR3C. The Gateway LR cloning reaction (Invitrogen) was used to transfer the sqv-2 ORF lacking TM into the Gateway destination vector pDEST-CMV-protA to generate a modified amino-terminal protein A fusion protein using the CMV promoter. The plasmid pDEST-CMV-protA was constructed by cloning the Gateway C.1 reading frame cassette, from the manufacturer, into pRK5F10ProteinA (Wei et al., Proc. Natl. Acad. Sci. USA 90:3885-8, 1993), which was digested with EcoRI and blunted using dNTPs, Klenow fragment and T4 DNA polymerase. This plasmid was designed to express a secreted protein A-SQV-2 (amino acids 25-330) fusion protein in mammalian cells.\nCOS7 cells were transiently transfected with pDEST-CMV-protA-sqv-2 using LIPOFECTAMINE (3:1 (w/w) liposome formulation of the polycationic lipid 2,3-dioleyloxy-N-[2(sperminecarboxamido)ethyl]-N,N-dimethyl-1-propanaminium trifluoroacetate (DOSPA) (Chemical Abstracts Registry name: N-[2-(2,5-bis[(3-aminopropyl)amino]-1-oxpentyl}amino)ethyl]-N,N-dimethyl-2,3-bis(9-octadecenyloxy)-1-propanaminium trifluoroacetate), and the neutral lipid dioleoyl phosphatidylethanolamine (DOPE) in membrane filtered water) (Life Technologies) in accordance with the manufacturer's instructions. […] After seventy-two hours of incubation, the fusion protein was recovered and purified from the cell culture supernatant by affinity chromatography using IgG-agarose (Wei et al., Proc. Natl. Acad. Sci. USA 90:3885-8, 1993).\nGalactosyltransferase II activity was assayed using UDP-[1-^3H]Gal (NEN Life Sciences Products, 12.8 Ci/mmol) and various mono- and di-saccharide acceptor substrates, including Xylβ-O-benzyl (Bn), Xylβ-O-naphthol, Galβ-O-naphthalenemethanol (NM), GalNAcβ-O-NM, GlcNAcβ-O-NM, Galβ,14Xylβ-O-Bn, Galβ1,3GlcNAc α-O-NM, Galβ1,3Galβ-O-NM, Galβ1,4GlcNAcβ-O-NM, Galβ1,3GlcNAcβ-O-NM, GlcNAcβ1,3Galβ-O-NM, Manaα,1,6Man α-O-decenyl (Lugemwa et al., J. Biol. Chem. 271:19159-65, 1996; Sarkar et al., Carbohydr Res 329:221-33, 2000; Brown et al., Bioorg. Med. Chem. 9:815-24, 2001). […] After incubation at room temperature for 3 hours, the reaction products were diluted with 1 mL of 0.5 M NaCl and applied to a Sep-Pak C18 (100 mg; Waters). After washing with 5 ml of 0.5 M NaCl and water, the radiolabeled products were eluted with 50% methanol, dried and counted by liquid scintillation."}, "[3]": {"target": "T3, chicken UDP-glucose dehydrogenase (Gallus gallus, UniProt Q5F3T9)", "T3 sequence (Q5F3T9 1-494)": "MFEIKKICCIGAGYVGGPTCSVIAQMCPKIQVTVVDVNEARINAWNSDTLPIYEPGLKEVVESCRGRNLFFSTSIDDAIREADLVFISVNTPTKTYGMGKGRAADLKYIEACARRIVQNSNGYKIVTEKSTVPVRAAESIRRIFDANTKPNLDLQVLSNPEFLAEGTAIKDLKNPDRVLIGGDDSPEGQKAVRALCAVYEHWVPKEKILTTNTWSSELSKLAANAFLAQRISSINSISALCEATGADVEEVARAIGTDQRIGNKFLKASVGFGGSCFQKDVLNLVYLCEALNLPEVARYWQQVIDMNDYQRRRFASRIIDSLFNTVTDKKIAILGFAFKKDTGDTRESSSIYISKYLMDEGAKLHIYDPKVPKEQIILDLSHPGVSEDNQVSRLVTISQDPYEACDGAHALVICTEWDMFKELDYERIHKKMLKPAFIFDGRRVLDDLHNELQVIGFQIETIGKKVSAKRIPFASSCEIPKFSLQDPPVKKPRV", "details": "cited from earlier work"}, "[4]": {"target": "UDP-glucose dehydrogenase (Escherichia coli, UniProt P76373)", "details": "cited from earlier work"}, "[5]": {"target": "Streptococcus pyogenes UDP-glucose dehydrogenase (Streptococcus pyogenes, UniProt P0C0F4)", "sequence (P0C0F4 whole entry)": "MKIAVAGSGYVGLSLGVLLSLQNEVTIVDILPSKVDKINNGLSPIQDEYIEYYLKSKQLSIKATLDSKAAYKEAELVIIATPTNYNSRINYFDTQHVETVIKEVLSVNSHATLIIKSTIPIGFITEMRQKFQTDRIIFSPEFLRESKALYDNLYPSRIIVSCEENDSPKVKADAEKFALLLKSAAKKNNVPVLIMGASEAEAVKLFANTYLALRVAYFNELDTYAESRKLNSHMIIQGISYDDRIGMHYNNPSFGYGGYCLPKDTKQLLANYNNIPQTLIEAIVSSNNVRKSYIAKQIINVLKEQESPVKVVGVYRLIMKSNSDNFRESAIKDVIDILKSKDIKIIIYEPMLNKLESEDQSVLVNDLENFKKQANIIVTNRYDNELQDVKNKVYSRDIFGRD", "details": "cited from earlier work"}, "SQV-4 [6]": {"target": "T4, SQV-4 (Caenorhabditis elegans, UniProt Q19905, R353H/T2A)", "T4 construct": "were used for PCR-amplification of the sqv-4 ORF, and the resulting product was digested with NcoI and XhoI and cloned into pET21d; made in house; host or cells: E. coli BL21 pLysS, pET21d; soluble fraction used without purification", "T4 sequence (Q19905 whole entry T2A/R353H)": "as the sequence (Q19905 whole entry T2A) above, with R353H counted along it", "type": "biochemical, C. elegans", "details": "bacterially expressed mutant protein", "source_text": "as §1, §2"}}, "note": "Where a chain is given by its changes, count along the chain named."}
{"molecule": "CC(=O)N[C@H]1[C@@H](OP(=O)(O)OP(=O)(O)OC[C@H]2O[C@@H](n3ccc(=O)[nH]c3=O)[C@H](O)[C@@H]2O)O[C@H](CO)[C@@H](O)[C@@H]1O", "note": "[UDP-N-acetyl-glucosamine]", "values": [{"measurement": "NAD+ reduction", "setting": "SQV-4 [1]", "value": "undetectable"}]}
{"molecule": "CC(=O)N[C@H]1[C@H](OCc2ccccc2)O[C@H](CO)[C@H](O)[C@@H]1O", "note": "[GalNAcβ1-O-Bn]", "values": [{"measurement": "Enzyme Activity", "setting": "[2]", "value": 0, "unit": "pmol/h/mL medium"}]}
{"molecule": "Nc1nc2c(ncn2[C@@H]2O[C@H](COP(=O)(O)OP(=O)(O)O[C@H]3O[C@H](CO)[C@@H](O)[C@H](O)[C@H]3O)[C@@H](O)[C@H]2O)c(=O)[nH]1", "note": "[GDP-glucose]", "values": [{"measurement": "NAD+ reduction", "setting": "SQV-4 [1]", "value": "undetectable"}]}
{"molecule": "O[C@@H]1[C@@H](O)[C@H](OCc2ccccc2)OC[C@H]1O", "note": "[Xylβ1-O-Bn, xylose-(β1)-O-benzyl]", "values": [{"measurement": "acceptor for glycosylation by SQV-2", "setting": "[2]", "value": "None of the other acceptors tested acted as an acceptor"}, {"measurement": "Enzyme Activity", "setting": "[2]", "value": 0, "unit": "pmol/h/mL medium"}]}
{"molecule": "Cc1cn([C@H]2C[C@H](O)[C@@H](COP(=O)(O)OP(=O)(O)O[C@H]3O[C@H](CO)[C@@H](O)[C@H](O)[C@H]3O)O2)c(=O)[nH]c1=O", "note": "[TDP-glucose]", "values": [{"measurement": "NAD+ reduction", "setting": "SQV-4 [1]", "value": "undetectable"}]}
{"molecule": "Nc1ncnc2c1ncn2[C@@H]1O[C@H](COP(=O)(O)OP(=O)(O)O[C@H]2O[C@H](CO)[C@@H](O)[C@H](O)[C@H]2O)[C@@H](O)[C@H]1O", "note": "[ADP-glucose]", "values": [{"measurement": "NAD+ reduction", "setting": "SQV-4 [1]", "value": "undetectable"}]}
{"molecule": "Nc1ccn([C@@H]2O[C@H](COP(=O)(O)OP(=O)(O)O[C@H]3O[C@H](CO)[C@@H](O)[C@H](O)[C@H]3O)[C@@H](O)[C@H]2O)c(=O)n1", "note": "[CDP-glucose]", "values": [{"measurement": "NAD+ reduction", "setting": "SQV-4 [1]", "value": "undetectable"}]}
{"molecule": "OC[C@H]1O[C@@H](O[C@@H]2CO[C@@H](OCc3ccccc3)[C@H](O)[C@H]2O)[C@H](O)[C@@H](O)[C@H]1O", "note": "[Galβ1,4Xylβ1-O-Bn, galactose-(β1,4)-xylose(β1)-O-benzyl]", "values": [{"measurement": "acceptor for glycosylation by SQV-2", "setting": "[2]", "value": "specifically catalyzed addition of galactose"}, {"measurement": "Enzyme Activity", "setting": "[2]", "value": 2660, "unit": "pmol/h/mL medium"}]}
{"molecule": "C=CCCCCCCCCO[C@H]1O[C@H](CO[C@H]2O[C@H](CO)[C@@H](O)[C@H](O)[C@@H]2O)[C@@H](O)[C@H](O)[C@@H]1O", "note": "[Manα1,6Manα1-O—C10]", "values": [{"measurement": "Enzyme Activity", "setting": "[2]", "value": 0, "unit": "pmol/h/mL medium"}]}
{"molecule": "O[C@@H]1[C@@H](O)[C@H](OCc2ccc3ccccc3c2)OC[C@H]1O", "note": "[Xylβ1-O-naphthol, xylose-(β1)-O-naphthalenemethanol]", "values": [{"measurement": "acceptor for glycosylation by SQV-2", "setting": "[2]", "value": "None of the other acceptors tested acted as an acceptor"}, {"measurement": "Enzyme Activity", "setting": "[2]", "value": 0, "unit": "pmol/h/mL medium"}]}
{"molecule": "NC(=O)c1ccc[n+]([C@@H]2O[C@H](COP(=O)([O-])OP(=O)(O)OC[C@H]3O[C@@H](n4cnc5c(N)ncnc54)[C@H](O)[C@@H]3O)[C@@H](O)[C@H]2O)c1", "note": "[NAD^+]", "values": [{"measurement": "Km", "setting": "[3]", "value": 900, "unit": "µM"}, {"measurement": "Km", "setting": "SQV-4 [1]; double-reciprocal plot of initial velocities, bacterially expressed SQV-4", "value": 200, "unit": "µM"}, {"measurement": "Km", "setting": "[4]", "value": 50, "unit": "µM"}, {"measurement": "Km", "setting": "[5]", "value": 60, "unit": "µM"}]}
{"molecule": "B1", "values": [{"measurement": "decrease in UDP-glucose dehydrogenase activity", "setting": "SQV-4 [6]", "value": "greater than 20 fold"}]}
{"molecule": "B2", "values": [{"measurement": "UDP-glucose dehydrogenase activity increase", "setting": "SQV-4 [1]; lysates vs lysates with vector alone or mutant SQV-4 protein", "value": "at least 20 fold"}]}
